Here are results for 28 molecules from US20250084091A1, “INHIBITORS OF SARS-COV-2” (The Texas A&M University System, priority 2021, published 2025).

Structures are written as SMILES. Read-outs that look alike come from different tables or passages of the source.

The subject of one data set is HeLa-ACE2 cells. The data set can be described thus: cells. The data set is classed as cell-based. The conditions noted are these: Table 2, total cell count in infected plates.
The subject of data set [1] is SARS-CoV-2 (strain USA-WA1/2020). The data set can be described thus: microbe, parasite or virus in culture. The data set is classed as cell-based.
Data set [2] has as its target SARS-CoV-2 main protease (Mpro) (Severe acute respiratory syndrome coronavirus 2, UniProt P0DTD1). As to the kind of experiment: biochemical.
A short description of data set [3]: Uninfected host cell cytotoxicity counter screen. It is filed as cell-based. The note with it: human. The method, then: Uninfected host cell cytotoxicity counter screen: HeLa-ACE2 cells were maintained as described for the infection assay and seeded in the assay-ready plates at 400 cells/well. Plates were incubated for 24 hours at 37° C. 5% CO2. To assess cell viability, the Image-iT DEAD green reagent was used according to manufacturer instructions. Cells were fixed with 4% paraformaldehyde, and counterstained with DAPI. Fixed cells are imaged as described above.
Viral replication data analysis: Data from the primary screen and the host cell cytotoxicity screen are normalized to neutral (DMSO) […] inhibitor controls (2.5 μM Remdesivir for antiviral effect and 10 μM puromycin for infected host cell toxicity). For the uninfected host cell cytotoxicity counter-screen 40 μM puromycin is used as the positive control. Concentration response experiments will be tested in triplicate.
Background: Counterscreens check selectivity or assay interference.

Setting [4] is: Severe acute respiratory syndrome coronavirus 2, Table 2, SARS-CoV-2 infected HeLa-ACE2 cells, read-out: CoV-2 HeLa EC50.
The mark [5] stands for this setting: Severe acute respiratory syndrome coronavirus 2, HeLa-ACE2, read-out: CoV-2 HeLa EC50, Table 2, SARS-CoV-2 infected HeLa-ACE2 cells.
The mark [6] stands for this setting: Severe acute respiratory syndrome coronavirus 2, HeLa, Table 3, read-out: CoV-2 HeLa EC50.
[7] abbreviates: Table 3, select example compounds against mpro, read-out: Enzyme IC50.

What is called EC50 is the concentration that produces a half-maximal response. One may read the IC50 as the midpoint of a concentration-inhibition curve. The CC50 is the concentration at which the toxic effect on the cells reaches its halfway point. Turning to `COc1cccc(C(c2ccccc2)N2CCN(C(=O)c3cncc(F)c3)CC2)c1` (stereo not shown) [MKP-1204, 1-(5-fluoropyridine-3-carbonyl)-4-[(3-methoxyphenyl)(phenyl)methyl] piperazine], the EC50 is more than 9.61 µM in the data set with HeLa-ACE2 cells and 6.66 µM in data set [1] (setting [4]). Also, the IC50 in data set [2] (Table 2, read-out: Enzyme IC50) was found to be 2.3 µM. In data set [3], the CC50 at 24 h was more than 39.8 µM.
`Cc1cncc(CN2CCN(C(c3ccccc3)c3ccccc3)CC2)c1` [MKP-1307, 1-(diphenylmethyl)-4-[(5-methylpyridin-3-yl)methyl]piperazine]: the EC50 (in the data set with HeLa-ACE2 cells; in data set [1] (setting [5])) was more than 9.61 µM in each case. For the same molecule, in data set [3], the half-maximal cytotoxic concentration (CC50) at 24 h is more than 39.8 µM.
In the case of `O=C(c1cccnc1Cl)N1CCN(C2c3ccccc3CCc3ccccc32)CC1` [ZS-333, (2-chloro-3-pyridyl)-[4-(2-tricyclo[9.4.0.03,8]pentadeca-1(11),3(8),4,6,12,14-hexaenyl)piperazin-1-yl]methanone], the concentration giving a half-maximal response (EC50) (in the data set with HeLa-ACE2 cells; in data set [1] (setting [5])) was more than 9.61 µM each time. In addition, in data set [3], the CC50 at 24 h is more than 39.8 µM.
Take `O=C1CC(C(=O)N2CCC(C(O)(c3ccccc3)c3ccccc3)CC2)CCN1` (stereo not shown) [NZ-789, 4-[4-(hydroxydiphenylmethyl)piperidine-1-carbonyl]piperidin-2-one]: the EC50 (in the data set with HeLa-ACE2 cells; in data set [1] (setting [5])) was more than 9.61 µM each time. Further, the 50% cytotoxic concentration (CC50) at 24 h in data set [3] is more than 39.8 µM.
Take `Nc1ncc(C(=O)N2CCN(C(c3ccccc3)c3ccccc3)CC2)cn1` [MKP-1322, 5-[4-(diphenylmethyl)piperazine-1-carbonyl]pyrimidin-2-amine]: the EC50 (in the data set with HeLa-ACE2 cells; in data set [1] (setting [5])) was more than 9.61 µM in each case. Also, the CC50 at 24 h in data set [3] is more than 39.8 µM.
Consider `Nc1ccc(C(=O)N2CCN(C(c3ccccc3)c3ccccc3)CC2)cn1` [MKP-1309, 5-[4-(diphenylmethyl)piperazine-1-carbonyl]pyridin-2-amine], for which the EC50 (in the data set on HeLa-ACE2 cells; in data set [1] (setting [5])) was more than 9.61 µM each time. Also, the CC50 at 24 h in data set [3] is more than 39.8 µM.
As to `Cc1oncc1C(=O)N1CCN(C(c2ccccc2)c2ccccc2)CC1` [MKP-1332, (4-benzhydrylpiperazin-1-yl)(5-methylisoxazol-4-yl)methanone], the EC50 (in the data set on HeLa-ACE2 cells; in data set [1] (setting [5])) was more than 9.61 µM throughout. Further, the cytotoxic concentration (CC50) at 24 h in data set [3] is more than 39.8 µM.
Consider `O=C(c1cncs1)N1CCN(C(c2ccccc2)c2ccccc2)CC1` [MKP-1318, 1-(diphenylmethyl)-4-(1,3-thiazole-5-carbonyl)piperazine], for which the EC50 (in the data set on HeLa-ACE2 cells; in data set [1] (setting [5])) was more than 9.61 µM in each case. In data set [3], this molecule showed a CC50 at 24 h of more than 39.8 µM.
Regarding `O=C(c1ccon1)N1CCN(C(c2ccccc2)c2ccccc2)CC1` [MKP-1324, 1-(diphenylmethyl)-4-(1,2-oxazole-3-carbonyl)piperazine], the EC50 (in the data set with HeLa-ACE2 cells; in data set [1] (setting [5])) was more than 9.61 µM throughout. The molecule further had a CC50 at 24 h in data set [3] of more than 39.8 µM.
As to `O=C1CC(C(=O)N2CCC(C(O)(c3ccccc3)c3ccccc3)CC2)CN1` (stereo not shown) [NZ-790, 4-[4-(hydroxydiphenylmethyl)piperidine-1-carbonyl]pyrrolidin-2-one], the EC50 (in the data set with HeLa-ACE2 cells; in data set [1] (setting [5])) was more than 9.61 µM in each case. This molecule came in with a cytotoxic concentration (CC50) at 24 h in data set [3] of more than 39.8 µM.
Take `O=C(c1cnc(Cl)c(Cl)c1)N1CCN(C(c2ccccc2)c2ccccc2)CC1` [AA-608, (4-benzhydrylpiperazin-1-yl)(5,6-dichloropyridin-3-yl)methanone]: the concentration giving a half-maximal response (EC50) is 0.863 µM in the data set on HeLa-ACE2 cells and 1.74 µM in data set [1] (setting [4]). In data set [3], the CC50 at 24 h is more than 39.8 µM.
Take `O=C(NC1CN(C(c2ccccc2)c2ccccc2)C1)c1cccnc1` [AA-603, N-(1-benzhydrylazetidin-3-yl)nicotinamide]: the EC50 (in the data set with HeLa-ACE2 cells; in data set [1] (setting [5])) was more than 9.61 µM in each case. In addition, in data set [3], the CC50 at 24 h was more than 39.8 µM.
`O=C(O)c1cncc(C(=O)N2CCN(C3c4ccccc4CCc4ccccc43)CC2)c1` [ZS-335, 5-[4-(2-tricyclo[9.4.0.03,8]pentadeca-1(11),3(8),4,6,12,14-hexaenyl)piperazine-1-carbonyl]pyridine-3-carboxylic acid]: the 50% effective concentration (EC50) (in the data set with HeLa-ACE2 cells; in data set [1] (setting [5])) was more than 9.61 µM each time. Moreover, the CC50 at 24 h in data set [3] was more than 39.8 µM.
For the molecule `O=Cc1ccccc1C(=O)N1CCC(C(O)(c2ccccc2)c2ccccc2)CC1` [NZ-791, 2-[4-(hydroxydiphenylmethyl)piperidine-1-carbonyl]benzaldehyde], the concentration for a half-maximal effect (EC50) (in the data set on HeLa-ACE2 cells; in data set [1] (setting [5])) was more than 9.61 µM each time. In data set [3], this molecule displayed a CC50 at 24 h of more than 39.8 µM.
For the molecule `N#Cc1ccc(C(=O)N2CCN(C(c3ccccc3)c3ccccc3)CC2)cn1` [MKP-1229, 5-[4-(diphenylmethyl)piperazine-1-carbonyl]pyridine-2-carbonitrile], the EC50 (with HeLa-ACE2 cells; in data set [1] (setting [5])) was more than 9.61 µM each time. In addition, the CC50 at 24 h in data set [3] was more than 39.8 µM.
With `O=C(c1cncc2cc[nH]c12)N1CCC(=C(c2cccc(F)c2)c2cccc(F)c2)CC1` [MKP-1355, (4-(bis(3-fluorophenyl)methylene)piperidin-1-yl)(1H-pyrrolo[3,2-c]pyridin-7-yl)methanone], the EC50 in data set [1] (setting [6]) turned out to be 0.094 µM. Moreover, the IC50 was found to be 0.028 µM in data set [2] (Table 2, read-out: Enzyme IC50) and 0.012 µM in data set [2] (setting [7]).
Take `c1ccc(C(c2ccccc2)N2CCN(c3nccc4ccncc34)CC2)cc1` [AA-649, 1-(4-benzhydrylpiperazin-1-yl)-2,7-naphthyridine]: the EC50 (with HeLa-ACE2 cells; in data set [1] (setting [5])) was more than 9.61 µM throughout. The molecule also came in with a CC50 at 24 h in data set [3] of more than 39.8 µM.
Turning to `Cc1cncc(C(=O)N2CC3CC(C2)N3C(c2ccccc2)c2ccccc2)c1` [AA-614, (6-benzhydryl-3,6-diazabicyclo[3.1.1]heptan-3-yl)(5-methylpyridin-3-yl)methanone], the EC50 (in the data set with HeLa-ACE2 cells; in data set [1] (setting [5])) was more than 9.61 µM throughout. In addition, the CC50 at 24 h in data set [3] (Table 2, uninfected cells, 24 hours, read-out: Uninfected HeLa-ACE2 CC50) is more than 39.8 µM.
For the molecule `Cc1cncc(NC(=O)N2CCN(C(c3ccccc3)c3ccccc3)CC2)c1` [MKP-1323, 4-benzhydryl-N-(5-methylpyridin-3-yl)piperazine-1-carboxamide], the EC50 (in the data set with HeLa-ACE2 cells; in data set [1] (setting [5])) was more than 9.61 µM throughout. It took 31.7 µM to reach half-maximal cytotoxicity in data set [3] (CC50 at 24 h).
For the molecule `O=C(c1ccc(Cl)nc1)N1CCN(C2c3ccccc3CCc3ccccc32)CC1` [ZS-337, (6-chloro-3-pyridyl)-[4-(2-tricyclo[9.4.0.03,8]pentadeca-1(11),3(8),4,6,12,14-hexaenyl)piperazin-1-yl]methanone], the EC50 (with HeLa-ACE2 cells; in data set [1] (setting [5])) was more than 9.61 µM throughout. In data set [3], this molecule returned a CC50 at 24 h of more than 39.8 µM.
`O=C1CC(CC(=O)N2CCN(C3c4ccccc4CS(=O)(=O)c4ccccc43)CC2)c2ccccc2N1` (stereo not shown) [NZ-811, 4-[2-[4-(5,5-dioxo-6,11-dihydrobenzo[c][1]benzothiepin-11-yl)piperazin-1-yl]-2-oxo-ethyl]-3,4-dihydro-1H-quinolin-2-one]: the EC50 (in the data set with HeLa-ACE2 cells; in data set [1] (setting [5])) was more than 9.61 µM throughout. In data set [3], the CC50 at 24 h was more than 39.8 µM.
Turning to `O=C1Nc2ccccc2C(N2CCN(C(=O)c3cncc4cc[nH]c34)CC2)c2ccccc21` (stereo not shown) [NZ-815, 11-[4-(1H-pyrrolo[3,2-c]pyridine-7-carbonyl)piperazin-1-yl]-5,11-dihydrobenzo[c][1]benzazepin-6-one], the concentration giving a half-maximal response (EC50) in data set [1] (setting [6]) was determined as 0.097 µM. For the same molecule, the IC50 is 0.03 µM in data set [2] (Table 2, read-out: Enzyme IC50) and 0.03 µM in data set [2] (setting [7]).
For `Cc1ccc(C(=O)N2CCN(C(c3ccccc3)c3ccccc3)CC2)cn1` [AA-612, (4-benzhydrylpiperazin-1-yl)(6-methylpyridin-3-yl)methanone], the EC50 in the data set with HeLa-ACE2 cells was determined as 0.863 µM; in data set [1] (setting [4]) it was 1.74 µM. Moreover, the CC50 at 24 h in data set [3] was more than 39.8 µM.
In the case of `Cc1cncc(CN2CCN(C(c3ccccc3)c3ccccc3)CC2=O)c1` [AA-645, 4-benzhydryl-1-((5-methylpyridin-3-yl)methyl)piperazin-2-one], the EC50 (in the data set on HeLa-ACE2 cells; in data set [1] (setting [5])) was more than 9.61 µM in each case. This molecule also came in with a CC50 at 24 h in data set [3] of more than 39.8 µM.
Take `O=C(c1cnc2ccccc2c1)N1CCN(C(c2ccccc2)c2ccccc2)CC1` [MKP-1167, 3-[4-(diphenylmethyl)piperazine-1-carbonyl]quinoline]: the EC50 (with HeLa-ACE2 cells; in data set [1] (setting [5])) was more than 9.61 µM throughout. Moreover, in data set [3], the CC50 at 24 h was more than 39.8 µM.
`N#CC(c1cccnc1)N1CCN(C(c2ccccc2)c2ccccc2)CC1` (stereo not shown) [MKP-1306, 2-[4-(diphenylmethyl)piperazin-1-yl]-2-(pyridin-3-yl)acetonitrile]: the EC50 (with HeLa-ACE2 cells; in data set [1] (setting [5])) was more than 9.61 µM in each case. The CC50 at 24 h in data set [3] was more than 39.8 µM.
For `O=C(c1cncc2cc[nH]c12)N1CC2CCC(C1)N2C(c1cccc(F)c1)c1cccc(F)c1` [AA-663, [8-[bis(3-fluorophenyl)methyl]-3,8-diazabicyclo[3.2.1]octan-3-yl]-(1H-pyrrolo[3,2-c]pyridin-7-yl)methanone], in data set [1] (Severe acute respiratory syndrome coronavirus 2, HeLa, read-out: CoV-2 HeLa EC50, Table 3), the EC50 amounted to 0.063 µM. Also, the IC50 in data set [2] (Enzyme IC50, Table 2) amounted to 0.038 µM; in data set [2] (Enzyme IC50, Table 3, select example compounds against mpro), 0.014 µM.
`C=C(C)C(=O)N1CCN(C(c2ccccc2)c2ccccc2)CC1` [MKP-1219, 1-[4-(diphenylmethyl)piperazin-1-yl]-2-methylprop-2-en-1-one]: the EC50 (with HeLa-ACE2 cells; in data set [1] (setting [5])) was more than 9.61 µM each time. In data set [3], this molecule gave a CC50 at 24 h of more than 39.8 µM.
